For assay [1], the target named is cAMP-dependent protein kinase catalytic subunit beta (Homo sapiens) (UniProt P22694). As to conditions: at 10 µM.
The target in assay [2] is G protein-coupled receptor kinase 5 (Homo sapiens, UniProt P34947). As to the kind of experiment: Selectivity interaction (Kinase panel (DSF assay)) EUB0001558a GRK5. Background: Differential scanning fluorimetry follows unfolding on heating by fluorescence.
Assay [3] has as its target Aurora kinase B (Homo sapiens, UniProt Q96GD4). As to the kind of experiment: Selectivity interaction (Ambit KINOMEscan and KiNATiv profiling in Jurkat cells) EUB0000090b AURKB. The assay is classed as cell-based. As to conditions: at 1 µM.
The target in assay [4] is T1, Serine/threonine-protein kinase DCLK3 (Homo sapiens) (UniProt Q9C098).
T1 sequence (whole entry): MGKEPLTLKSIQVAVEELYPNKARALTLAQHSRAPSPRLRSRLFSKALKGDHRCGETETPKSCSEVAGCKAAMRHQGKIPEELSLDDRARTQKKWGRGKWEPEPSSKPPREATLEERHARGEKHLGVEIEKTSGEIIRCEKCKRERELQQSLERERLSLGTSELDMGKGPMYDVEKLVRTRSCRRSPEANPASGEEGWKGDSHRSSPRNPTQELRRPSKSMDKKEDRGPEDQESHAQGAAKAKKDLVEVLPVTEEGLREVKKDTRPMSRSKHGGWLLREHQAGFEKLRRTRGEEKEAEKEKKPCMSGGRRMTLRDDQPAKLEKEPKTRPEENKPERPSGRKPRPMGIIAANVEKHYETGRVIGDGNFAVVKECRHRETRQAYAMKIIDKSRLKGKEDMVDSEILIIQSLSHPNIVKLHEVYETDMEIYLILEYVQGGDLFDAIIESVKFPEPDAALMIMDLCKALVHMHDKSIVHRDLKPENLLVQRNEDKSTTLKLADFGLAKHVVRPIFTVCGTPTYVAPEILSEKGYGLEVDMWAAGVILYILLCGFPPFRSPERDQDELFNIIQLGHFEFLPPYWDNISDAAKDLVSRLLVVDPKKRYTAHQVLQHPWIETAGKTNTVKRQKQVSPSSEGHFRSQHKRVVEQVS
The experiment in a line: Selectivity interaction (KinomeScan (DiscoverX)) EUB0001079a DCLK3. The conditions noted are these: at 1 µM.

For assay [5], the target named is Tyrosine-protein kinase Fyn (Homo sapiens) (UniProt P06241). The experiment in a line: Selectivity interaction (KinomeScan (DiscoverX)) EUB0001079a FYN. The conditions noted are these: at 1 µM.
Assay [6] concerns the target Casein kinase II subunit alpha (Homo sapiens, UniProt P68400). As to the kind of experiment: Selectivity interaction (KinomeScan (DiscoverX)) EUB0001079a CSNK2A1. The conditions noted are these: at 1 µM.
Assay [7] concerns Leucine-rich repeat serine/threonine-protein kinase 2 (Homo sapiens), Q5S007 [G2019S]. The experiment in a line: (§1) Selectivity interaction (KinomeScan (DiscoverX)) EUB0001079a LRRK2. As to conditions: at 1 µM.
The target in assay [8] is Leucine-rich repeat serine/threonine-protein kinase 2 (Homo sapiens, UniProt Q5S007). The description is as §1. As to conditions: at 1 µM.
For assay [9], the target named is T2, Phosphatidylinositol 5-phosphate 4-kinase type-2 beta (Homo sapiens) (UniProt P78356).
T2 sequence (whole entry): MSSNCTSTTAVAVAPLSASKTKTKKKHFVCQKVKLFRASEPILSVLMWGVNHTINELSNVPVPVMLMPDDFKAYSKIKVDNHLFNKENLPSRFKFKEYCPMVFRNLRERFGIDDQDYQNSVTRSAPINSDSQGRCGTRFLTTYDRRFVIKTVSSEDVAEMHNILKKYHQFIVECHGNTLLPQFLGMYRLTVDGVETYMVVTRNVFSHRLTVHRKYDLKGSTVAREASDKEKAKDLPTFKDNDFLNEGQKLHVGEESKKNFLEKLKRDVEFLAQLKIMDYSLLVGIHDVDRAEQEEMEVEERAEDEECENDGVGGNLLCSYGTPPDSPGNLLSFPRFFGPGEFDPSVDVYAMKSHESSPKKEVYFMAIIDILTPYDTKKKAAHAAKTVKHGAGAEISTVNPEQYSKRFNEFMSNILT
As to the kind of experiment: Selectivity interaction (KinomeScan (DiscoverX)) EUB0000655a PIP4K2B. As to conditions: at 10 µM.

Assay [10] concerns the target Serine/threonine-protein kinase 32B (Homo sapiens) (UniProt Q9NY57). As to the kind of experiment: Selectivity interaction (KinomeScan (DiscoverX)) EUB0000695a STK32B. As to conditions: at 100 nM.
For assay [11], the target named is Myosin-IIIa (Homo sapiens) (UniProt Q8NEV4). The experiment in a line: Selectivity interaction (KinomeScan (DiscoverX)) EUB0000607a MYO3A. The conditions noted are these: at 10 µM.
For assay [12], the target named is Serine/threonine-protein kinase 16 (Homo sapiens, UniProt O75716). The experiment in a line: Selectivity interaction (KinomeScan (DiscoverX)) EUB0000607a STK16. As to conditions: at 10 µM.
Assay [13] concerns the target Casein kinase I isoform epsilon (Homo sapiens, UniProt P49674). The experiment in a line: Selectivity interaction (KinomeScan (DiscoverX)) EUB0000607a CSNK1E. As to conditions: at 10 µM.
The target of assay [14] is Calcium/calmodulin-dependent protein kinase type II subunit beta (Homo sapiens) (UniProt Q13554). As to the kind of experiment: Selectivity interaction (ActivX KiNativ screen (kinase selectivity in THP-1 cell lysates)) EUB0000639a CAMK2B. The assay is classed as subcellular. As to conditions: lysate, at 5 µM.
Assay [15] concerns the target Serine/threonine-protein kinase 26 (Homo sapiens, UniProt Q9P289). The experiment in a line: Selectivity interaction (ActivX KiNativ screen (kinase selectivity in THP-1 cell lysates)) EUB0000639a STK26. The assay is classed as subcellular. The conditions noted are these: lysate.
Assay [16] concerns the target Cyclin-dependent kinase 8 (Homo sapiens, UniProt P49336). As to the kind of experiment: Selectivity interaction (KinomeScan (DiscoverX)) EUB0000229b CDK8. The conditions noted are these: at 10 µM.
For assay [17], the target named is Transcription initiation factor TFIID subunit 1-like (Homo sapiens) (UniProt Q8IZX4). The experiment in a line: Selectivity interaction (Human bromodomain panel (DSF assay)) EUB0000233b TAF1L.
For assay [18], the target named is Tyrosine-protein kinase Fgr (Homo sapiens) (UniProt P09769). As to the kind of experiment: Selectivity interaction (KinomeScan (DiscoverX)) EUB0001619a FGR. As to conditions: at 1 µM.
Assay [19] deals with Proto-oncogene tyrosine-protein kinase Src (Homo sapiens, UniProt P12931). As to the kind of experiment: Selectivity interaction (Kinase panel (literature)) EUB0001199aCl SRC. The conditions noted are these: at 1 µM.
Sequence of Proto-oncogene tyrosine-protein kinase Src (P12931 2-536 limits assumed): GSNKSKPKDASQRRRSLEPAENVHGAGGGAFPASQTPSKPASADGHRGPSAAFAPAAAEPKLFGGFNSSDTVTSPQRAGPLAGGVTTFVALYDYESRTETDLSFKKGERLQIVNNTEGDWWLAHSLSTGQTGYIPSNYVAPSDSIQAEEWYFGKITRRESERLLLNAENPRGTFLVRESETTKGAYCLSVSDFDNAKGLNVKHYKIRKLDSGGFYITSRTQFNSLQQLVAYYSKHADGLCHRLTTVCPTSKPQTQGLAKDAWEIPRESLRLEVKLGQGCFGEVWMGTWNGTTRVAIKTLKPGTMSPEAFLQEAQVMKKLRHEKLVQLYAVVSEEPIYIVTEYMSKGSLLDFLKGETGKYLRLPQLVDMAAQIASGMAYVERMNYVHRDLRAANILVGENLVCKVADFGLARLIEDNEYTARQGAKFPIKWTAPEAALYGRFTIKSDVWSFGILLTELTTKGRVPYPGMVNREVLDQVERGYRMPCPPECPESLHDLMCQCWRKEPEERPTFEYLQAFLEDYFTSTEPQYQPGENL

Sequence of Serine/threonine-protein kinase 26 (Q9P289 2-416 limits assumed): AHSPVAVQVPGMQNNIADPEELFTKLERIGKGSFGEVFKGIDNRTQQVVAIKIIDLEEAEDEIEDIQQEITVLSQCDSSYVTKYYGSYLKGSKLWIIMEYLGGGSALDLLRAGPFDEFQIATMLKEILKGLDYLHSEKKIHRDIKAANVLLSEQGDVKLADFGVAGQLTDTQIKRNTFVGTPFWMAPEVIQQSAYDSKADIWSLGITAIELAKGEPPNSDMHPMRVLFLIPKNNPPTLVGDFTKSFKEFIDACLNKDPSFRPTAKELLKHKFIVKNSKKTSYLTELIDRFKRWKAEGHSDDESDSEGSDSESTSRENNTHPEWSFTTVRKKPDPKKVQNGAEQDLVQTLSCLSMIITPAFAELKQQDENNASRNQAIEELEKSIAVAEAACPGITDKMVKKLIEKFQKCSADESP
Sequence of Myosin-IIIa (Homo sapiens) (Q8NEV4 whole entry): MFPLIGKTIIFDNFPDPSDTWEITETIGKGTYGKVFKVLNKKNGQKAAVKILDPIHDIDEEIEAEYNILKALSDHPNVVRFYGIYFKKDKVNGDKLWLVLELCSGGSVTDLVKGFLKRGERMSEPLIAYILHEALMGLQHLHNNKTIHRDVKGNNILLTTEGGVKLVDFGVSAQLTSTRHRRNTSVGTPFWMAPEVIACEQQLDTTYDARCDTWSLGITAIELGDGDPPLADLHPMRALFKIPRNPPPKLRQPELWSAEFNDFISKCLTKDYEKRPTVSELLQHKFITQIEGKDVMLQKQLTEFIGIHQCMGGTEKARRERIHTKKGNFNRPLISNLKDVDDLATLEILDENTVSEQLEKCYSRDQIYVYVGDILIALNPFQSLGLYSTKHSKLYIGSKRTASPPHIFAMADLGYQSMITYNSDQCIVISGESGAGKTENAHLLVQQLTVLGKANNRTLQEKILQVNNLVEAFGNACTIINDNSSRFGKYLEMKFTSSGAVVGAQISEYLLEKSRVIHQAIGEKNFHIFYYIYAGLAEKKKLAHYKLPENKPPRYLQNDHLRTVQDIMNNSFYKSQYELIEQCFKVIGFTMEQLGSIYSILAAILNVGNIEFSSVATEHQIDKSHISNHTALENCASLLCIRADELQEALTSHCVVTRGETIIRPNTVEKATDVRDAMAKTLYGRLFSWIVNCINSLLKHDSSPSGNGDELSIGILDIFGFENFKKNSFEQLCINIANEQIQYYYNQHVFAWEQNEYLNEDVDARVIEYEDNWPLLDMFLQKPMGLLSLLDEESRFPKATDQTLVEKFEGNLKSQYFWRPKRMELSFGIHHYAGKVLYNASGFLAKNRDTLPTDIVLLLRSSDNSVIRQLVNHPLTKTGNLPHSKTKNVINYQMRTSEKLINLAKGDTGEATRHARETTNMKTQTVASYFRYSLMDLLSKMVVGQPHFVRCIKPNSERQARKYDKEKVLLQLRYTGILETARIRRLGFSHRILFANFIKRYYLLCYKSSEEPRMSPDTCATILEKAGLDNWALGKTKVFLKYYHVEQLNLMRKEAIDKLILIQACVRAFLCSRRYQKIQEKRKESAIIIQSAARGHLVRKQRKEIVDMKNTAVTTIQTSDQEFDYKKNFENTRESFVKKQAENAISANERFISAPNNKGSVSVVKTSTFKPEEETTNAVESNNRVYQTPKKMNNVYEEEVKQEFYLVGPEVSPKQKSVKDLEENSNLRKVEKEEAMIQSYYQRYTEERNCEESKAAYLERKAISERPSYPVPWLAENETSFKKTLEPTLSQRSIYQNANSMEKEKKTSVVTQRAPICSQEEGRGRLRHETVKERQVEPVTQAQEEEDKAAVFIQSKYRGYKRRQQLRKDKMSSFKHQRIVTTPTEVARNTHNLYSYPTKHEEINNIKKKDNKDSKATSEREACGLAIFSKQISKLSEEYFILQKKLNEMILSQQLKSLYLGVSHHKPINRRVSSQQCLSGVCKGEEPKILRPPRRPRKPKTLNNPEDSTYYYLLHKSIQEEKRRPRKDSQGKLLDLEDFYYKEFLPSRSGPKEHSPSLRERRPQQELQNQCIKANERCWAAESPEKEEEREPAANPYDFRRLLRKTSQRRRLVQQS
Sequence of Transcription initiation factor TFIID subunit 1-like (Homo sapiens) (Q8IZX4 whole entry): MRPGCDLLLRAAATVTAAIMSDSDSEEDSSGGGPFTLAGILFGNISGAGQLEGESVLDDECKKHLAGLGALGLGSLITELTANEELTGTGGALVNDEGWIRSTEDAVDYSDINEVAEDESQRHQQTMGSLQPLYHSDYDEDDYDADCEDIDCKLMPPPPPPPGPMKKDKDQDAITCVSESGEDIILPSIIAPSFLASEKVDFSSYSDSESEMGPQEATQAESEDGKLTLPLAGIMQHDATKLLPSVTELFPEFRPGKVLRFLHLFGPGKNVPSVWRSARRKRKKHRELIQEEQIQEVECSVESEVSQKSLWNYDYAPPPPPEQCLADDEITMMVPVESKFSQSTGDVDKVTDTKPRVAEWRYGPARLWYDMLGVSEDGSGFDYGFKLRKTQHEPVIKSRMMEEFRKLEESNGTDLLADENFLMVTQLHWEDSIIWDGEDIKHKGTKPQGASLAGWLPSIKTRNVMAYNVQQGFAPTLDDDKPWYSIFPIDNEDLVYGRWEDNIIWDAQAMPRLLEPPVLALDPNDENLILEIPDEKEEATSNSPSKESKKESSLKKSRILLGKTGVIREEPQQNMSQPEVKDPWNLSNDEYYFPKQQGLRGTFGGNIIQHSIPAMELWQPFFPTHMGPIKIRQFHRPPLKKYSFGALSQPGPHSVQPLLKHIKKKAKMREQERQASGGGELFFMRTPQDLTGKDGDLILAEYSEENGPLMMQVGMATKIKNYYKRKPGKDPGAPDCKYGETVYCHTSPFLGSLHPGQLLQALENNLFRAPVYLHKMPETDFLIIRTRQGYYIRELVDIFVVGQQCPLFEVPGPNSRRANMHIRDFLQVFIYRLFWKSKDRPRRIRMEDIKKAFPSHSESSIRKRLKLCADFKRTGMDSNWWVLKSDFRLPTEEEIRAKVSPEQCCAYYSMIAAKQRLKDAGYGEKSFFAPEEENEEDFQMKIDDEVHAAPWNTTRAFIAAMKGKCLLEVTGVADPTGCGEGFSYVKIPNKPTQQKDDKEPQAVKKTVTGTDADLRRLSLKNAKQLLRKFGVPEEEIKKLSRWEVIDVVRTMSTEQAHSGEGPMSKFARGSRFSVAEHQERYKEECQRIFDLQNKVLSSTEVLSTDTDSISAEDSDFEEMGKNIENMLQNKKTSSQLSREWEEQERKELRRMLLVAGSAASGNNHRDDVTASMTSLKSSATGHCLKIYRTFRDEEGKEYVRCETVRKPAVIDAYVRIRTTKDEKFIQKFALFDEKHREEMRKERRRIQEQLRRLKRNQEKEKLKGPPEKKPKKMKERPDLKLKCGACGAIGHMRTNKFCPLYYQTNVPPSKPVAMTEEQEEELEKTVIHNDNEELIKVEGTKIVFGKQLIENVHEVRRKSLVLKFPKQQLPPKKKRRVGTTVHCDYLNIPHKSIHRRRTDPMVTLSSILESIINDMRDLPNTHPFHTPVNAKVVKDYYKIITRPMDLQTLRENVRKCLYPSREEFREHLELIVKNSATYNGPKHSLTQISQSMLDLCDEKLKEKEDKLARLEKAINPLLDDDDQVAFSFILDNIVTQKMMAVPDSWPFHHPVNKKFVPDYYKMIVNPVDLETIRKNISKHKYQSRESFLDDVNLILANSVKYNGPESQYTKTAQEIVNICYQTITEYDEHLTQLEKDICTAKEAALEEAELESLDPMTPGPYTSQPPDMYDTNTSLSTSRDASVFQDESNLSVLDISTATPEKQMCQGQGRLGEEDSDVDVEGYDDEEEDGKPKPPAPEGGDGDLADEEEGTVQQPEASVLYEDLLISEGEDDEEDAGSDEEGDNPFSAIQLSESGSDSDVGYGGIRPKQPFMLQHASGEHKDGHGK
Sequence of Aurora kinase B (Q96GD4 whole entry): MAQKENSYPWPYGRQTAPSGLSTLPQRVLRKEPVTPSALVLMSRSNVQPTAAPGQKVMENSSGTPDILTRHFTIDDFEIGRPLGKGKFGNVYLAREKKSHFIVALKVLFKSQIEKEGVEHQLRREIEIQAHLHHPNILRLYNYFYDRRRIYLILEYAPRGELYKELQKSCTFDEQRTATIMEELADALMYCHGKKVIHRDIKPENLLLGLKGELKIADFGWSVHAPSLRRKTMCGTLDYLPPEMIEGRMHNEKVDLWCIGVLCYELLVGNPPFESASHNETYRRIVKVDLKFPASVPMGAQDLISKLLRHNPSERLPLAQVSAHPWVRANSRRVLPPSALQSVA
Sequence of Serine/threonine-protein kinase 16 (O75716 whole entry, canonical isoform): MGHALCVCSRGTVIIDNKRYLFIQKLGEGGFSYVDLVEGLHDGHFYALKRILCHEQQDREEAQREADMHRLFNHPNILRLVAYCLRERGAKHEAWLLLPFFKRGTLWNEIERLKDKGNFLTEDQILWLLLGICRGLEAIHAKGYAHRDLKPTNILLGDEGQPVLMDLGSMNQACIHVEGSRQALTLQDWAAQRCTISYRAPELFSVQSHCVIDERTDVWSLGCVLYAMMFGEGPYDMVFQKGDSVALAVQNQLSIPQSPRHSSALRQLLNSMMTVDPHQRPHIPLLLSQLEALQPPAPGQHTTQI

For the molecule `Cc1cc([C@@H](C)Nc2ccccc2C(=O)O)c2nc(N3CCOCC3)cc(=O)n2c1` [AZD-6482], the % of control in assay [1] is 100%.

For `CC(C)(O)[C@H](F)CN1Cc2cc(NC(=O)c3cnn4cccnc34)c(N3CCOCC3)cc2C1=O`, the dTM in assay [2] is 0.2 K.

In the case of `CN(C)C/C=C/C(=O)Nc1ccc(C(=O)N2CCCC(Nc3ncc(Cl)c(-c4c[nH]c5ccccc45)n3)C2)cc1` (stereo not drawn), the % of control in assay [3] amounted to 100%.

For `Nc1cnc(N2CCc3cc(S(=O)(=O)Nc4c(F)cc(Cl)cc4F)cc(N4CCCC4=O)c32)nc1` [TP-020n], the % of control in [4] stood at 85%; in [5], 58%; in assay [6], 100%; in [7], 81%; in assay [8], 97%.

`CN(C)CCOc1ccc(-c2nc(-c3ccncc3)c(-c3ccc4c(c3)CC/C4=N\O)[nH]2)cc1`: in assay [9], the % of control was determined as 94%.

For the molecule `Cc1cc(F)c(C(=O)Nc2cccc(-c3nncn3C(C)C)n2)cc1-n1cnc(C2CC2)c1`, the % of control in assay [10] is 93%.

In the case of `CNC(=O)Nc1ccc(-c2nc(N3CC4CCC(C3)O4)c3cnn(C4CCC5(CC4)OCCO5)c3n2)cc1`, the % of control in assay [11] was 52%; in assay [12], 98%; in assay [13], 39%.

In the case of `CC[C@@H]1[C@H](F)C(=O)N[C@@H]1COc1nccc2cc(C(N)=O)c(OC)cc12` [ZIMLOVISERTIB], the % of inhibition in assay [14] was 19.6%; in assay [15] (at 0.01 µM) it was -5.3%; in assay [15] (at 0.04 µM), 19.1%; in [15] (at 0.2 µM), -26.4%; in [15] (at 1 µM) it was 10.2%; in assay [15] (at 5 µM) it was 0.7%.

`COc1cc(N(C)c2ccnc3ccc(C(F)(F)F)cc23)cc(OC)c1OC` displayed a % binding in assay [16] of 100%.

Take `CN(C)CCCOc1ccc(-c2cc(NCCCn3cccn3)nc(S(C)(=O)=O)n2)cc1`: in assay [17], the dTM was below 2 K.

`N#Cc1cccc(-c2c[nH]c3ncnc(N4CCOCC4)c23)c1`: the % of control in assay [18] came out at 100%.

In the case of `CN1Cc2nccc(-c3cn(C)nc3-c3ccc(F)cc3)c2C1=O`, in [19], the % of inhibition came to 6%.

The values are drawn from ChEMBL document CHEMBL5465560, “Selectivity Literature for EUbOPEN Chemogenomic Library” (2024).
